According to patent US5442060A, “Carboxamide derivatives” (Mitsubishi Kasei Corporation, priority 1992, dated 1995):
Where a name gives a salt, the structure may show the parent alone.

Each molecule was assayed against T1, ACAT (Homo sapiens, UniProt P35610) (assay: ACAT inhibition: radiolabelled cholesterol oleate production from labelled oleic acid in HepG2 cells). Conditions: concentration required to inhibit 50% of ACAT (cholesterol oleate production vs control).
T1 construct: endogenous in cells; host or cells: HepG2
T1 sequence (P35610 1-550): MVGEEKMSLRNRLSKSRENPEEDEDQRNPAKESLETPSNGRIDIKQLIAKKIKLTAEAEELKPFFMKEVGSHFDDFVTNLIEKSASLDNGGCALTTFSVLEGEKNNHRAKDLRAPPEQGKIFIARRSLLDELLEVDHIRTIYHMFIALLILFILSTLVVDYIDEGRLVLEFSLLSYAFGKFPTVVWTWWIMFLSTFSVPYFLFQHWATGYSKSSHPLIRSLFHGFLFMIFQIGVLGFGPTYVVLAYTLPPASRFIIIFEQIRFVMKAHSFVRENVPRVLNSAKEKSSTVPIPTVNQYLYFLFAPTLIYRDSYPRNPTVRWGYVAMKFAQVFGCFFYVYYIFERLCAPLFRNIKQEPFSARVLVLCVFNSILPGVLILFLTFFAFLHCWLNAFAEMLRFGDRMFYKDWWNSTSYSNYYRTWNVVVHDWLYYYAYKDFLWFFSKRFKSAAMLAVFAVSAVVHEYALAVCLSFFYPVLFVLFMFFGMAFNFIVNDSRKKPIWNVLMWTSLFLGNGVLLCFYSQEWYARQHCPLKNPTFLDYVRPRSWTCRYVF
Format: cell-based
Description: ACAT inhibition of the compounds of the present invention were assayed by the following method. HepG2 cell coming from human hepatic cancer cell was used for assaying ACAT activity. Thus, the assay was effected by adding radioactivity labelled oleic acid-bovine serum albumin complex into an incubation solution of HepG2 cell and measuring the amount of radioactivity labelled cholesterol oleate produced from the radioactivity labelled oeleic acid within the cell. Therefore, the activity of the compound of this invention to inhibit ACAT was obtained by calculating how much percent lowered the productivity of cholesterol oleate in control group containing no test compound by adding the test compound in each concentration (μM) and then expressing IC50 value, namely concentration of a test compound required to inhibit 50% expression of enzyme.
`CCCCCC(CC(=O)Nc1c(C(C)C)cccc1C(C)C)c1cccc(OC)c1OC` (centres unmarked) [Example 2, N-(2,6-Diisopropylphenyl)-3-(2,3-dimethoxyphenyl)octanamide] gave an IC50 of 3 nM. `CCCCC[C@@H](CNC(=O)Nc1c(OC(C)C)ccc2c1CCCC2)c1cccc2c1OCO2` [Example 20, (R)-1-[2-(2,3-methylenedioxyphenyl)heptyl]-3-(2-isopropoxy-5,6,7,8-tetrahydronaphthalene-1-yl) urea] gave an IC50 of 37 nM. With `CCCCC[C@@H](CNC(=O)Nc1c(OC(C)C)ncnc1OC(C)C)c1cccc2c1OCO2` [Example 29, (R)-1-[2-(2,3-methylenedioxyphenyl)heptyl]-3-[4,6-di (1-methylethoxy)pyrimidine-5-yl]urea] the IC50 was 314 nM. For `CCCCCC(CCC(=O)Nc1c(C(C)C)cccc1C(C)C)c1cccc2c1OCO2` (centres unmarked) [Example 8, N-(2,6-Diisopropylphenyl)-4-(2,3-methylenedioxyphenyl)nonanamide], the IC50 was 10 nM. `CCCCC[C@@H](CNC(=O)Nc1c(N(C)C)ncnc1N(C)C)c1cccc2c1OCO2` [Example 25, (R)-1-[2-(2,3-methylenedioxyphenyl)heptyl]-3-[4,6-bis (dimethylamino)pyrimidine-5-yl]urea] gave an IC50 of 57 nM. For `CCCCC[C@@H](CNC(=O)Nc1c(OCC)ccc2c1CCC2)c1cccc2c1OCO2` [Example 23, (R)-1-[2-(2,3-methylenedioxyphenyl)heptyl]-3-(5-ethoxyindane-4-yl) urea], the IC50 was 195 nM. `CCCCCC(CC(=O)Nc1c(C(C)C)cccc1C(C)C)c1cc(C(C)=O)cc(OC)c1OC` (centres unmarked) [Example 10, N-(2,6-Diisopropylphenyl)-3-(5-acetyl-2,3-dimethoxyphenyl) octanamide] was tested, and the IC50 was 7.6 nM. With `CCCCC[C@@H](CNC(=O)Nc1c(OC(C)C)c(C)nn1-c1ccccc1)c1cccc2c1OCO2` [Example 31, (R)-1-[2-(2,3-methylenedioxyphenyl)heptyl]-3-[3-methyl-4-(1-methylethoxy)-1-phenylpyrazole-5-yl]urea] the IC50 was 28 nM. In the case of `CCCCC[C@@H](CNC(=O)Nc1c(N2CCCC2)ncnc1N1CCCC1)c1cccc2c1OCO2` [Example 26, (R)-1-[2-(2,3-methylenedioxyphenyl)heptyl]-3-(4,6-dipyrrolidinopyrimidine-5-yl) urea], the IC50 is reported as 175 nM. With `CCCCC[C@@H](CNC(=O)Nc1c(OCC)ccc2c1CCCC2)c1cccc2c1OCO2` [Example 22, (R)-1-[2-(2,3-methylenedioxyphenyl)heptyl]-3-(2-ethoxy-5,6,7,8-tetrahydronaphthalene-1-yl) urea] the IC50 was 139 nM. Work on `CCCCC[C@H](CC(=O)Nc1c(C(C)C)ccc(N(C)C)c1C(C)C)c1cccc2c1OCO2` [Example 18, (R)-N-(2,6-diisopropyl-3-dimethylaminophenyl)-3-(2,3-methylenedioxyphenyl) octanamide hydrochloride] yielded an IC50 of 101 nM. Work on `CCCCC(CC(=O)Nc1c(C(C)C)cccc1C(C)C)c1cccc(OC)c1OC` (centres unmarked) [Example 3, N-(2,6-Diisopropylphenyl)-3-(2,3-dimethoxyphenyl) heptanamide] yielded an IC50 of 18 nM. With `CCCCCC(CCC(=O)Nc1c(C(C)C)cccc1C(C)C)c1cccc(OC)c1OC` (centres unmarked) [Example 9, N-(2,6-Diisopropylphenyl)-4-(2,3-dimethoxyphenyl) nonanamide] the IC50 was 50 nM. In the case of `CCCCCCC(CC(=O)Nc1c(C(C)C)cccc1C(C)C)c1cccc(OC)c1OC` (centres unmarked) [Example 4, N-(2,6-Diisopropylphenyl)-3-(2,3-dimethoxyphenyl) nonanamide], the IC50 is reported as 6.5 nM. `CCCCCC(CC(=O)Nc1c(C(C)C)cccc1C(C)C)c1cccc2c1OCO2` (centres unmarked) [Example 1, N-(2,6-diisopropylphenyl)-3-(2,3-methylenedioxyphenyl)octanamide] gave an IC50 of 10 nM. For `CCCCC[C@@H](CNC(=O)Nc1cccc2c1OC(C)(C)C2)c1cccc2c1OCO2` [Example 24, (R)-1-[2-(2,3-methylenedioxyphenyl)heptyl]-3-(2,3-dihydro-2,2-dimethylbenzofuran-7-yl) urea], the IC50 was 230 nM. With `CCCCC[C@@H](CNC(=O)Nc1c(OC)ccc2c1CCCC2)c1cccc2c1OCO2` [Example 21, (R)-1-[2-(2,3-methylenedioxyphenyl)heptyl]-3-(2-methoxy-5,6,7,8-tetrahydronaphthalene-1-yl) urea] the IC50 was 154 nM. Molecule `CCCCC[C@@H](CNC(=O)Nc1c(OC(C)C)c(C)nn1C(C)(C)C)c1cccc2c1OCO2` [Example 34, (R)-1-[2-(2,3-methylenedioxyphenyl)heptyl]-3-[1-(1,1-dimethylethyl)-3-methyl-4-(1-methylethoxy)pyrazole-5-yl]urea] has an IC50 of 106 nM. With `CCCCCC(CC(=O)Nc1c(C(C)C)cccc1C(C)C)c1cc(N(C)C)cc(OC)c1OC` (centres unmarked) [Example 17, N-(2,6-diisopropylphenyl)-3-(2,3-dimethoxy-5-dimethylaminophenyl) octanamide] the IC50 was 0.9 nM. `CCCCC[C@@H](CNC(=O)Nc1c(OCC)ncnc1N(C)C)c1cccc2c1OCO2` [Example 30, (R)-1-[2-(2,3-methylenedioxyphenyl)heptyl]-3-(4-dimethylamino-6-ethoxypyrimidine-5-yl) urea] showed an IC50 of 109 nM.
